Source: patent US10448639B2, “Fungicidal pyrazoles” (FMC CORPORATION, priority 2009, dated 2019)
Where two headings read alike, the source gives them in different places.

Columns and labels:
Plasmopara viticola = experiment: Test A: grape downy mildew, curative spray on inoculated grape seedlings, visual disease rating; type: in vivo; details: 100 = 100% disease control; for Test A rating (% disease control): 0 = no control relative to controls
Description: Upon removal, visual disease ratings were made. […] A dash (-) indicates no test results.

Phytophthora infestans = type: in vivo; details: tomato late blight, 100 = 100% disease control
Rhizoctonia solani = experiment: Test E: turf brown patch, preventive spray on creeping bent grass (Agrostis sp.) seedlings, disease rating; type: in vivo; details: 100 = 100% disease control
Description: A dash (-) indicates no test results.

[1] = system: Puccinia recondita f. sp. tritici; experiment: Test I: wheat leaf rust, preventive spray on wheat seedlings, visual disease rating
Description: General protocol for preparing test suspensions for Tests A-J: the test compounds were first dissolved in acetone in an amount equal to 3% of the final volume and then suspended at the desired concentration (in ppm) in acetone and purified water (50/50 mix by volume) containing 250 ppm of the surfactant Trem® 014 (polyhydric alcohol esters). The resulting test suspensions were then used in Tests A-J. Spraying a 200 ppm test suspension to the point of run-off on the test plants was the equivalent of a rate of 500 g/ha. Unless otherwise indicated, the rating values indicate a 200 ppm test suspension was used. (An asterisk “*” next to the rating value indicates a 40 ppm test suspension was used.)
The test suspension was sprayed to the point of run-off on wheat seedlings. The following day the seedlings were inoculated with a spore suspension of Puccinia recondita f. sp. tritici (the causal agent of wheat leaf rust) and incubated in a saturated atmosphere at 20° C. for 24 h, and then moved to a growth chamber at 20° C. for 7 days, after which time visual disease ratings were made

Botrytis cinerea = experiment: Test B: tomato Botrytis, preventive spray on tomato seedlings, visual disease rating
Septoria tritici = experiment: Test G: wheat leaf blotch, preventive spray on wheat seedlings, visual disease rating; details: for Test G rating (% disease control): preventive spray, 0 = no control
Alternaria solani = experiment: Test C: tomato early blight, preventive spray on tomato seedlings, visual disease rating
[2] = system: Erysiphe graminis f sp. tritici; experiment: Test J: wheat powdery mildew, preventive spray on wheat seedlings, visual disease rating
Septoria nodorum = experiment: Test F: Septoria glume blotch, preventive spray on wheat seedlings, visual disease rating
[3] = preventive spray, 0 = no control
[4] = wheat leaf rust, preventive spray, 100 = 100% disease control, 0 = no control
[5] = tomato Botrytis, preventive spray, 100 = 100% disease control, 0 = no control
[6] = wheat leaf blotch, 100 = 100% disease control
[7] = tomato early blight, preventive spray, 100 = 100% disease control, 0 = no control
[8] = wheat powdery mildew, preventive spray, 100 = 100% disease control, 0 = no control
[9] = Septoria glume blotch on wheat, preventive spray, 100 = 100% disease control, 0 = no control
[10] = 0 = no control relative to controls
[11] = wheat leaf rust, preventive, 100 = 100% disease control, 0 = no control relative to controls
[12] = tomato Botrytis, 100 = 100% disease control, 0 = no control relative to controls
[13] = tomato early blight, 100 = 100% disease control, 0 = no control relative to controls
[14] = wheat powdery mildew, 100 = 100% disease control, 0 = no control relative to controls
[15] = Septoria glume blotch, 100 = 100% disease control, 0 = no control relative to controls
[16] = 0 = no disease control relative to controls

| SMILES | Test A rating (% disease control) (Plasmopara viticola; curative spray) | Test D rating (% disease control) (Phytophthora infestans; [3]) | Test E rating (% disease control) (Rhizoctonia solani; [3]) | Test I rating (% disease control) [1, 4] | Test B rating (% disease control) (Botrytis cinerea; [5]) | Test G rating (% disease control) (Septoria tritici; [6]) | Test C rating (% disease control) (Alternaria solani; [7]) | Test J rating (% disease control) [2, 8] | Test F rating (% disease control) (Septoria nodorum; [9]) | other results |
| --- | --- | --- | --- | --- | --- | --- | --- | --- | --- | --- |
| Cc1nn(C)c(Nc2cc(F)cc(F)c2)c1-c1ccc(Cl)cc1 [compound 5] | 36% | 0% | 0% | 0% | 0% | 0% | 25% | 0% | 0% | – |
| COc1ccc(Nc2c(-c3ccc(F)cc3Cl)c(C)nn2C)cc1 [compound 288] | – | – | – | – | – | – | – | – | – | Test A rating (% disease control) (Plasmopara viticola): 9%; Test D rating (% disease control) (Phytophthora infestans; [10]): 0%; Test E rating (% disease control) (Rhizoctonia solani; [10]): 92%; Test I rating (% disease control) [1, 11]: 74%; Test B rating (% disease control) (Botrytis cinerea; [12]): 99%; Test C rating (% disease control) (Alternaria solani; [13]): 52%; Test J rating (% disease control) [2, 14]: 92%; Test F rating (% disease control) (Septoria nodorum; [15]): 0% |
| COc1cc(Nc2c(-c3c(F)cccc3F)c(C)nn2C)cc(OC)c1 [compound 37] | 0% | 0% | 0% | 0% | 0% | 3% | 0% | 0% | 0% | – |
| COc1cc(Nc2c(-c3ccc(F)cc3F)c(C)nn2C)cc(OC)c1 [compound 2] | 8% | 0% | 0% | 0% | 1% | 0% | 0% | 0% | 0% | – |
| Cc1nn(C)c(N(C)c2cc(F)cc(F)c2)c1-c1ccc(Cl)cc1 [compound 6] | 65% | 0% | 0% | 0% | 10% | 0% | 23% | 93% | 0% | – |
| CCN(c1c(F)cc(F)cc1F)c1c(-c2ccc(F)cc2Cl)c(C)nn1C [compound 294] | – | – | – | – | – | – | – | – | – | Test A rating (% disease control) (Plasmopara viticola): 0%; Test D rating (% disease control) (Phytophthora infestans; [10]): 0%; Test E rating (% disease control) (Rhizoctonia solani; [10]): 80%; Test I rating (% disease control) [1, 11]: 0%; Test B rating (% disease control) (Botrytis cinerea; [12]): 98%; Test C rating (% disease control) (Alternaria solani; [13]): 0%; Test J rating (% disease control) [2, 14]: 84%; Test F rating (% disease control) (Septoria nodorum; [15]): 0% |
| Cc1nn(C)c(Nc2cccc(Cl)c2)c1-c1ccc(F)cc1F [Compound 1, N-(3-Chlorophenyl)-4-(2,4-difluorophenyl)-1,3-dimethyl-1H-pyrazol-5-amine] | 0% | 0% | 47% | – | – | – | – | – | – | pest or weed control at 200 µg/mL ([1]; 192 h, read-out: Test I rating (% disease control)): 0%; pest or weed control at 200 µg/mL (Botrytis cinerea; Botrytis cinerea, in Solanum lycopersicum, 120 h, read-out: Test B rating (% disease control)): 99%; pest or weed control at 200 µg/mL (Septoria tritici; Zymoseptoria tritici, in Triticum aestivum, 504 h, read-out: Test G rating (% disease control)): 99%; pest or weed control at 200 µg/mL (Alternaria solani; Alternaria solani, in Solanum lycopersicum, 168 h, read-out: Test C rating (% disease control)): 0%; pest or weed control at 200 µg/mL ([2]; Blumeria graminis, in Triticum aestivum, 192 h, read-out: Test J rating (% disease control)): 98%; pest or weed control at 200 µg/mL (Septoria nodorum; Parastagonospora nodorum, in Triticum aestivum, 192 h, read-out: Test F rating (% disease control)): 0% |
| Cc1nn(C)c(Nc2cccc(F)c2)c1-c1ccc(F)cc1Cl [compound 8] | 55% | 0% | 99% | 97% | 99% | 100% | 54% | 99% | 0% | – |
| Cc1nn(C)c(Nc2cc(F)cc(F)c2F)c1-c1ccc(Cl)cc1 [compound 10] | – | 0% | 0% | 0% | 47% | 0% | 0% | 0% | 0% | – |
| Cc1nn(C)c(Nc2ccc(F)cc2F)c1-c1ccc(Cl)cc1 [compound 4] | 29% | 0% | 0% | 53% | 87% | 98% | 46% | 97% | 0% | – |
| Cc1nn(C)c(N(CC#N)c2c(F)cc(F)cc2F)c1-c1ccc(F)cc1Cl [compound 326] | – | – | – | – | – | – | – | – | – | Test A disease control rating (Plasmopara viticola; [16]): 8%; Test D disease control rating (Phytophthora infestans; [16]): 0%; Test E disease control rating (Rhizoctonia solani; [16]): 99%; Test I disease control rating ([1]; wheat leaf rust, sprayed the day before inoculation, 100 = 100% disease control, 0 = no disease control relative to controls): 99%; Test B disease control rating (Botrytis cinerea; tomato Botrytis, 100 = 100% disease control, 0 = no disease control relative to controls): 99%; Test G disease control rating (Septoria tritici; wheat leaf blotch, sprayed the day before inoculation, 100 = 100% disease control, 0 = no disease control relative to controls): 100%; Test C disease control rating (Alternaria solani; tomato early blight, 100 = 100% disease control, 0 = no disease control relative to controls): 99%; Test J disease control rating ([2]; wheat powdery mildew, sprayed the day before inoculation, 100 = 100% disease control, 0 = no disease control relative to controls): 94%; Test F disease control rating (Septoria nodorum; Septoria glume blotch on wheat, 100 = 100% disease control, 0 = no disease control relative to controls): 73% |
| Cc1nn(C)c(N(C)c2c(F)cc(F)cc2F)c1-c1ccc(F)cc1Cl [compound 293] | – | – | – | – | – | – | – | – | – | Test A rating (% disease control) (Plasmopara viticola): 0%; Test D rating (% disease control) (Phytophthora infestans; [10]): 0%; Test E rating (% disease control) (Rhizoctonia solani; [10]): 99%; Test I rating (% disease control) [1, 11]: 94%; Test B rating (% disease control) (Botrytis cinerea; [12]): 97%; Test C rating (% disease control) (Alternaria solani; [13]): 47%; Test J rating (% disease control) [2, 14]: 99%; Test F rating (% disease control) (Septoria nodorum; [15]): 0% |
| Cc1nn(C)c(Nc2ccc(F)c(Cl)c2)c1-c1ccc(F)cc1Cl [compound 7] | 29% | 0% | 63% | 74% | 99% | 100% | 0% | 92% | 0% | – |
| Cc1nn(C)c(Nc2ccc(F)cc2)c1-c1ccc(F)cc1Cl [compound 11] | – | 0% | 99% | 99% | 99% | 100% | 99% | 100% | 0% | – |
| Cc1nn(C)c(N(C)c2cccc(Cl)c2)c1-c1ccc(F)cc1F [compound 3] | 6% | 9% | 0% | 0% | 0% | 13% | 25% | 99% | 0% | – |
